Results published in ChEMBL document CHEMBL3044972, “Synthesis, anti-inflammatory, and cytotoxicity evaluation of 9,10-dihydroanthracene-9,10-,-succinimide and bis-succinimide derivatives” (2013).

Key:
Format in all cases: functional
NCI-H522 = test: Cytotoxicity against Homo sapiens (human) NCI-H522 cells assessed as growth inhibition at 10 uM after 48 hr by SRB assay; conditions: NCI-H522, 48 h, read-out: GI
Rattus norvegicus = test: Anti-inflammatory activity against albino Charles Foster Rattus norvegicus (rat) assessed as inhibition of carrageenan-induced paw edema at 50 mg/kg, po administered 30 min prior to carrageenan injection measured after 1-3 hr by plethysmometer; set-up: scale not given: the % may be the effect or the level left
HepG2 = test: Cytotoxicity against Homo sapiens (human) HepG2 cells assessed as growth inhibition at 10 uM after 48 hr by SRB assay; conditions: HepG2, 48 h, read-out: GI
HCT-15 = test: Cytotoxicity against Homo sapiens (human) HCT15 cells assessed as growth inhibition at 10 uM after 48 hr by SRB assay; conditions: HCT-15, 48 h, read-out: GI
PA-1 = test: Cytotoxicity against Homo sapiens (human) PA1 cells assessed as growth inhibition at 10 uM after 48 hr by SRB assay; conditions: PA-1, 48 h, read-out: GI
T47D = test: Cytotoxicity against Homo sapiens (human) T47D cells assessed as growth inhibition at 10 uM after 48 hr by SRB assay; conditions: read-out: GI

Row | SMILES | inhibition of growth at 10 µM (NCI-H522) | Activity (Rattus norvegicus) | inhibition of growth at 10 µM (HepG2) | inhibition of growth at 10 µM (HCT-15) | inhibition of growth at 10 µM (PA-1) | inhibition of growth at 10 µM (T47D)
1 | O=C1C2C3c4ccccc4C(c4ccccc43)C2C(=O)N1CN1CCOCC1 (configuration not stated) | 24% | 39% | 34% | 22% | 24% | 20%
2 | O=C1C2C3c4ccccc4C(c4ccccc43)C2C(=O)N1Cc1ccco1 (configuration not stated) | 25% | 15% | 38% | 15% | 27% | 40%
3 | O=C1C2C3c4ccccc4C(c4ccccc43)C2C(=O)N1Cc1ccccn1 (configuration not stated) | 20% | 14% | 35% | 7% | 47% | 26%
4 | O=C1C2C3c4ccccc4C(c4ccccc43)C2C(=O)N1CC1CCCO1 (configuration not stated) | 30% | 34% | 55% | 22% | 31% | 23%
5 | O=C1C2C3c4ccccc4C(c4ccccc43)C2C(=O)N1CCN1CCNCC1 (configuration not stated) |  | 31% |  |  |  | 
6 | O=C1C2C3c4ccccc4C(c4ccccc43)C2C(=O)N1CC1CCNCC1 (configuration not stated) | 25% | 35% | 32% | 11% | 26% | 17%
7 | O=C1C2C3c4ccccc4C(c4ccccc43)C2C(=O)N1Cc1ccccc1 (configuration not stated) | 62% | 37% | 52% | 12% | 43% | 22%
8 | O=C1C2C3c4ccccc4C(c4ccccc43)C2C(=O)N1C1CC1 (configuration not stated) | 24% | 23% | 53% | 19% | 37% | 21%
9 | CC1(C)CC(N2C(=O)C3C4c5ccccc5C(c5ccccc54)C3C2=O)CC(C)(C)N1 (configuration not stated) | 15% | 32% | 40% | 20% | 31% | 10%
10 | O=C1C2C3c4ccccc4C(c4ccccc43)C2C(=O)N1Cc1ccncc1 (configuration not stated) | 27% | 37% | 61% | 12% | 21% | 24%
11 | O=C1C2C3c4ccccc4C(c4ccccc43)C2C(=O)N1CCN1CCCC1 (configuration not stated) | 13% | 28% | 47% | 14% | 36% | 7%
12 | O=C1C2C3c4ccccc4C(c4ccccc43)C2C(=O)N1CCN1CCCCC1 (configuration not stated) | 23% | 27% | 38% | 6% | 25% | 20%
13 | O=C1CCCN1CCN1C(=O)C2C3c4ccccc4C(c4ccccc43)C2C1=O (configuration not stated) | 15% | 17% | 41% | 16% | 33% | 26%
14 | O=C1C2C3c4ccccc4C(c4ccccc43)C2C(=O)N1CCCn1ccnc1 (configuration not stated) | 32% | 27% | 48% | 30% | 40% | 28%
15 | O=C1C2C3c4ccccc4C(c4ccccc43)C2C(=O)N1Nc1ccccc1 (configuration not stated) | 52% | 11% | 52% | 11% | 46% | 13%
16 | O=C1C2C3c4ccccc4C(c4ccccc43)C2C(=O)N1Nc1ccccn1 (configuration not stated) | 27% | 38% | 37% | 4% | 13% | 1%
17 | O=C1C2C3c4ccccc4C(c4ccccc43)C2C(=O)N1CCN1C(=O)C2C3c4ccccc4C(c4ccccc43)C2C1=O (configuration not stated) | 11% | 20% | 29% | 10% | 9% | 5%
18 | O=C1C2C3c4ccccc4C(c4ccccc43)C2C(=O)N1CCCN1C(=O)C2C3c4ccccc4C(c4ccccc43)C2C1=O (configuration not stated) | 17% | 33% | 45% | 27% | 6% | 24%
19 | O=C1C2C3c4ccccc4C(c4ccccc43)C2C(=O)N1CCCCN1C(=O)C2C3c4ccccc4C(c4ccccc43)C2C1=O (configuration not stated) | 23% | 25% | 25% | 26% | 37% | 19%
20 | CC(CN1C(=O)C2C3c4ccccc4C(c4ccccc43)C2C1=O)N1C(=O)C2C3c4ccccc4C(c4ccccc43)C2C1=O (configuration not stated) | 20% | 22% | 41% | 9% | 14% | 2%
21 | O=C1C2C3c4ccccc4C(c4ccccc43)C2C(=O)N1CCCN1CCN(CCCN2C(=O)C3C4c5ccccc5C(c5ccccc54)C3C2=O)CC1 (configuration not stated) | 17% | 15% | 33% | 10% | 16% | 33%
22 | C[C@@H]1C[C@@H]([C@H](O)CC2CC(=O)NC(=O)C2)C(=O)[C@@H](C)C1 [CYCLOHEXIMIDE] | 13% |  | 15% | 12% | 32% | 9%
23 | O=P1(N(CCCl)CCCl)NCCCO1 (configuration not stated) [CYCLOPHOSPHAMIDE ANHYDROUS] | 9% |  | 14% | 5% | 15% | 12%
24 | O=c1[nH]cc(F)c(=O)[nH]1 [FLUOROURACIL] | 18% |  | 28% | 15% | 18% | 10%
25 | CC(C)Cc1ccc(C(C)C(=O)O)cc1 (configuration not stated) [IBUPROFEN] |  | 39% |  |  |  | 
